Measured values: BindingDB's records for doi:10.1016/j.bmc.2004.09.056 (Pfizer, 2005)

Target: T1, Renin (Homo sapiens, UniProt P00797)
T1 sequence (P00797 whole entry): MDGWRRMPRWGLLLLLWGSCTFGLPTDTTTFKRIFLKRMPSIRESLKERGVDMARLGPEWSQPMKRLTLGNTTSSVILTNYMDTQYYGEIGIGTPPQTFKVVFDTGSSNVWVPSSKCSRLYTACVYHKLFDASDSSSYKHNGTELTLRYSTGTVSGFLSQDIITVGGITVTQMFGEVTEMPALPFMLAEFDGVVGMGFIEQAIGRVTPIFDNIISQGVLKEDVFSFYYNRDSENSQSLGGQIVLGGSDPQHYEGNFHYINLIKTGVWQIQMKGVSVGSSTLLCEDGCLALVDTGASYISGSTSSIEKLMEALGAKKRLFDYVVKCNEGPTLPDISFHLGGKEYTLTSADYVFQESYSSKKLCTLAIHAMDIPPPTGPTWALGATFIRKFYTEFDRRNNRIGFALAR
Experiment: In Vitro Renin IC50 Determinations (Tandem GFP FRET Assay)
Conditions: pH 7.4; 22 °C
Source text: The renin assay utilized a tandem Green Flourescent Protein (tGFP) substrate that was hydrolyzed by human rennin. The tGFP substrate contained a nine amino acid (Ile-His-Pro-Phe-His-Leu-Val-Ile-His) recognition sequence for human renin flanked by two GPF proteins (W1B and Topaz). Human rennin cleaves the leucine-valine site of the substrate linker. Once cleaved, the emission ratio changes. The change was monitored by the ratio of 530 nm (topaz) over 475 nm (W1B) with the excitation set at 432 nm and the cutoff at 515 nm. The assay used a 384 well plate format that was read using a Gemini XS Fluorometric plate reader (Molecular Devices). Compounds were screened at a starting concentration of 10 uM and used a fourfold eleven-point dilution regiment.

| Compound | IC50 [nM] |
| --- | --- |
| COc1ccc2cc(CN[C@@H]3CNCC[C@@H]3c3ccc(OCCCOCc4ccccc4OC)cc3)ccc2c1 (mixture of isomers) [(3S,4R)-N-[(6-methoxynaphthalen-2-yl)methyl]-4-(4-{3-[(2-methoxyphenyl)methoxy]propoxy}phenyl)piperidin-3-amine] | 73 |
| COc1ccccc1COCCCOc1ccc([C@H]2CCNC[C@H]2NCc2ccc(-c3ccccc3)cc2)cc1 (mixture of isomers) [mixture of cis isomers] | > 10000 |
| COc1ccccc1COCCCOc1ccc([C@H]2CCNC[C@H]2NCc2ccc3occc3c2)cc1 (mixture of isomers) [mixture of cis isomers] | 393 |
| COc1ccccc1COCCCOc1ccc([C@H]2CCNC[C@H]2NCc2ccc3[nH]ccc3c2)cc1 (mixture of isomers) [(3S,4R)-N-(1H-indol-5-ylmethyl)-4-(4-{3-[(2-methoxyphenyl)methoxy]propoxy}phenyl)piperidin-3-amine] | 2280 |
| COc1ccccc1COCCCOc1ccc([C@H]2CCNC[C@H]2NCc2ccc3cccnc3c2)cc1 (mixture of isomers) [mixture of cis isomers] | 175 |
| COc1ccccc1COCCCOc1ccc([C@H]2CCNC[C@H]2NCc2ccc3c(c2)NCCC3)cc1 [mixture of cis isomers] | 255 |
| COc1ccccc1COCCCOc1ccc([C@H]2CCNC[C@H]2NC(=O)c2ccc3ccccc3c2)cc1 (mixture of isomers) [mixture of cis isomers] | > 10000 |
| COc1ccccc1COCCCOc1ccc([C@H]2CCNC[C@H]2NCc2ccc3ccccc3c2)cc1 [(3S,4R)-4-(4-{3-[(2-methoxyphenyl)methoxy]propoxy}phenyl)-N-(naphthalen-2-ylmethyl)piperidin-3-amine] | 61 |
